The values that follow come from the supplement of paper PMC12698765.

± gives the standard deviation of the averaged measurements.

Assay [1] has as its system 409B2 hiPSC (iCRISPR Cas9, FRMD7 editing). Description: NHEJ-attributed indel frequency relative to solvent control (fold (ratio to mock)); higher = more NHEJ outcomes. As for the experimental part:
(§1)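 Subset screen of 55 drugs tested at 5 concentrations around the effective screening dose, in 409B2 iCRISPR Cas9 hiPSCs editing FRMD7 with a ssDNA donor. Drugs were applied for 24 h. Viability was read by resazurin and editing outcomes by amplicon sequencing (HDR, NHEJ <2 bp microhomology, MMEJ ≥2 bp microhomology). Values are relative to solvent mock controls; two biological replicates.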

Assay [2] shares this test system. Kind of assay: cell survival relative to solvent control (fold (ratio to mock)); higher = more surviving cells. As for the experimental part: as §1
The test system is the same in assay [3]. Kind of assay: MMEJ-attributed deletion frequency relative to solvent control (fold (ratio to mock)); higher = more MMEJ outcomes. As for the experimental part:
as §1

For assay [4] the test system is unchanged. Kind of assay: HDR (precise edit) frequency relative to solvent control (fold (ratio to mock)); higher = more homology-directed repair outcomes. As for the experimental part:
as §1

As for `Nc1ncnc2c1ncn2C1CC(O)C(CO)O1` (stereo not given) [2'-Deoxyadenosine monohydrate] (in DMSO), the NHEJ-attributed indel frequency came to 1.01 ± 0.013 in assay [1] (20 nM); 1.02 ± 0.015 in assay [1] (50 nM); 1 ± 0.029 in assay [1] (100 nM); 1.006 ± 0.008 in assay [1] (200 nM); 1.01 ± 0.027 in assay [1] (500 nM). Also, the cell survival turned out to be 0.996 in assay [2] (20 nM); 1.12 in assay [2] (50 nM); 1 in assay [2] (100 nM); 1.1 in assay [2] (200 nM); 1.12 in assay [2] (500 nM). Moreover, the MMEJ-attributed deletion frequency in assay [3] (20 nM) worked out at 0.957 ± 0.043; in assay [3] (50 nM) it was 0.99 ± 0.071; in assay [3] (100 nM) it was 0.999 ± 0.11; in assay [3] (200 nM) it was 1.02 ± 0.036; in assay [3] (500 nM), 1.02 ± 0.2. Moreover, the HDR stood at 1.03 ± 0.021 in assay [4] (20 nM); 1.02 ± 0.02 in assay [4] (50 nM); 1.03 ± 0.11 in assay [4] (100 nM); 1.01 ± 0.05 in assay [4] (200 nM); 0.958 ± 0.062 in assay [4] (500 nM).
Turning to `Nc1ccn(C[C@@H](CO)OCP(=O)(O)O)c(=O)n1` [Cidofovir] (in H2O), the NHEJ-attributed indel frequency in assay [1] (2000 nM) is 0.843 ± 0.058; in assay [1] (5000 nM), 0.835 ± 0.019; in assay [1] (10000 nM) it was 0.862 ± 0.049; in assay [1] (20000 nM), 0.736 ± 0.051; in assay [1] (50000 nM) it was 0.988. Besides, the cell survival in assay [2] (2000 nM) is 0.624; in assay [2] (5000 nM), 0.548; in assay [2] (10000 nM) it was 0.333; in assay [2] (20000 nM), 0.167; in assay [2] (50000 nM), 0.863. For the same compound, the MMEJ-attributed deletion frequency amounted to 0.789 ± 0.08 in assay [3] (2000 nM); 0.881 ± 0.029 in assay [3] (5000 nM); 0.924 ± 0.35 in assay [3] (10000 nM); 0.727 ± 0.12 in assay [3] (20000 nM); 0.968 in assay [3] (50000 nM). The HDR is 1.06 ± 0.083 in assay [4] (2000 nM); 0.9 ± 0.055 in assay [4] (5000 nM); 0.85 ± 0.081 in assay [4] (10000 nM); 0.574 ± 0.012 in assay [4] (20000 nM); 1.01 in assay [4] (50000 nM).
As for `Oc1cccc(O)c1` [Resorcinol] (in DMSO), the NHEJ-attributed indel frequency in assay [1] (200 nM) stood at 0.988 ± 0.024; in assay [1] (500 nM), 0.995 ± 0.0014; in assay [1] (1000 nM), 1 ± 0.043; in assay [1] (2000 nM), 0.999 ± 0.033; in assay [1] (5000 nM) it was 0.99 ± 0.043. The cell survival came to 1.15 in assay [2] (200 nM); 1.17 in assay [2] (500 nM); 0.955 in assay [2] (1000 nM); 1.03 in assay [2] (2000 nM); 1.12 in assay [2] (5000 nM). The MMEJ-attributed deletion frequency in assay [3] (200 nM) came to 0.916 ± 0.095; in assay [3] (500 nM) it was 0.884 ± 0.054; in assay [3] (1000 nM), 0.824 ± 0.045; in assay [3] (2000 nM), 0.934 ± 0.13; in assay [3] (5000 nM), 0.922 ± 0.16. In addition, the HDR in assay [4] (200 nM) was found to be 1.07 ± 0.072; in assay [4] (500 nM) it was 1.08 ± 0.038; in assay [4] (1000 nM), 1.11 ± 0.026; in assay [4] (2000 nM), 1.07 ± 0.021; in assay [4] (5000 nM) it was 1.06 ± 0.073.
Turning to `CSCCC(N)C(=O)O` (racemic) [DL-Methionine] (in H2O), the NHEJ-attributed indel frequency in assay [1] (20 nM) was 1.01 ± 0.025; in assay [1] (50 nM) it was 1.038 ± 0.0021; in assay [1] (100 nM) it was 1.04 ± 0.0044; in assay [1] (200 nM), 1.03 ± 0.011; in assay [1] (500 nM), 1.02 ± 0.016. The cell survival in assay [2] (20 nM) stood at 0.974; in assay [2] (50 nM), 0.972; in assay [2] (100 nM) it was 0.891; in assay [2] (200 nM), 0.957; in assay [2] (500 nM), 0.861. The MMEJ-attributed deletion frequency in assay [3] (20 nM) was 0.912 ± 0.069; in assay [3] (50 nM) it was 0.924 ± 0.017; in assay [3] (100 nM), 0.802 ± 0.018; in assay [3] (200 nM) it was 0.877 ± 0.13; in assay [3] (500 nM), 0.912 ± 0.042. Also, the HDR in assay [4] (20 nM) was determined as 1.001 ± 0.0057; in assay [4] (50 nM), 0.932 ± 0.021; in assay [4] (100 nM) it was 0.943 ± 0.051; in assay [4] (200 nM), 0.937 ± 0.044; in assay [4] (500 nM), 0.917 ± 0.011.
